Data taken from patent US6884819B1, “Neuropathy remedies” (Teijin Limited, priority 1999, dated 2005).

How the values were obtained:
[1] = system: Wistar rats; assay: Measurement of blood pressure lowering action (blood pressure and heart rate after intravenous injection without anesthesia); type: in vivo; set-up: Blood pressure (mmHg, ± standard error): unit not given here; settings: for Blood pressure (mmHg, ± standard error): 0 min. value assigned 100
Method: Thirty five, male Wistar rats.
Cannulas were inserted into the left carotid artery for measuring blood pressure, and into the left jugular vein for intravenous injection of the test compounds, respectively. After being housed normally in their cages overnight following surgery, the animals were injected with the test solutions without anesthesia. Blood pressure and heart rate were measured immediately before dosing (0 minutes) and at 5, 30, 60, 120 and 240 minutes after dosing. The blood pressure at 0 minutes for each animals was assigned a value of 100, and measured values of blood pressure at each time were then normalized based on that value.

[2] = system: Alzheimer's dementia animal model by continuous intraventricular infusion of β protein; assay: Step-through passive evasion test in rats with continuous intraventricular infusion of β-amyloid protein (learning and memory ability improvement effect); type: in vivo, Wistar rats
Excerpt: A step-through passive evasive reaction apparatus composed of two chambers separated by a guillotine door, was used for the experimental apparatus. Namely, one of the chambers was a bright chamber composed of clear acrylic boards (floor: 15 cm×25 cm, height: 15 cm) while the other chamber was a dark chamber (of the same size) composed of black acrylic boards. In addition, stainless steel grids having a diameter of 4 mm were provided at intervals of 15 mm on the floor of the dark room, and connected to a shock generator for applying an electric shock. To begin with, after opening the guillotine door and allowing to freely explore the inside of the apparatus for 1 minute, the door was closed, the rat was placed in the bright chamber as an acquisition trial and the door was opened 30 seconds later. The door was closed after all four limbs of the rat entered the dark chamber followed immediately by the application of an electric shock. […] As a retention trial conducted 24 hours after the acquisition trial, the rat was placed in the bright chamber and the amount of time until all four limbs entered the dark chamber after the guillotine door was opened 30 seconds later was measured (step-through latency). […] The learning and memory ability improvement action of test compound A was measured using the evaluation methods of Reference Examples 1 and 2. […]

[3] = system: C57BL mice; assay: Toxicity study, single administration into the caudal vein; type: in vivo; settings: for Mortality: 0.03, 0.3, 3 mg/kg i.v., mice, 14 days observation; for Body weights: 0.03-3 mg/kg i.v., days 1, 3, 7 and 14 after dosing; for General condition starting on the day after dosing: all dose groups, day after dosing through day 14
Method: The test compound solutions were administered into the caudal vein at the rate of about 5 ml per minute. […] In addition, body weights were measured immediately before dosing and on days 1, 3, 7 and 14 after dosing.

[4] = 0.03 mg/kg i.v., 5 min. after dosing
[5] = 0.03 mg/kg i.v., 30 min. after dosing
[6] = 0.03 mg/kg i.v., 60 min. after dosing
[7] = 0.03 mg/kg i.v., 2 hr. after dosing
[8] = 0.03 mg/kg i.v., 4 hr. after dosing
[9] = 0.3 mg/kg i.v., 5 min. after dosing
[10] = 0.3 mg/kg i.v., 30 min. after dosing
[11] = 0.3 mg/kg i.v., 60 min. after dosing
[12] = 0.3 mg/kg i.v., 2 hr. after dosing
[13] = 0.3 mg/kg i.v., 4 hr. after dosing
[14] = 3 mg/kg i.v., 5 min. after dosing
[15] = 3 mg/kg i.v., 30 min. after dosing
[16] = 3 mg/kg i.v., 60 min. after dosing
[17] = 3 mg/kg i.v., 2 hr. after dosing
[18] = 3 mg/kg i.v., 4 hr. after dosing

Compound	Blood pressure (mmHg, ± standard error) [1, 4]	Blood pressure (mmHg, ± standard error) [1, 5]	Blood pressure (mmHg, ± standard error) [1, 6]	Blood pressure (mmHg, ± standard error) [1, 7]	Blood pressure (mmHg, ± standard error) [1, 8]	Blood pressure (mmHg, ± standard error) [1, 9]	Blood pressure (mmHg, ± standard error) [1, 10]	Blood pressure (mmHg, ± standard error) [1, 11]	Blood pressure (mmHg, ± standard error) [1, 12]	Blood pressure (mmHg, ± standard error) [1, 13]	Blood pressure (mmHg, ± standard error) [1, 14]	Blood pressure (mmHg, ± standard error) [1, 15]	Blood pressure (mmHg, ± standard error) [1, 16]	Blood pressure (mmHg, ± standard error) [1, 17]	Blood pressure (mmHg, ± standard error) [1, 18]	Mortality [3]	Body weights [3]	General condition starting on the day after dosing [3]	also measured
COC(=O)CCCCC1=C[C@H]2C[C@@H](O)[C@H](/C=C/[C@@H](O)Cc3cccc(C)c3)[C@H]2C1 [Comparative Test Compound D, (15S)-16-(m-tolyl)-17,18,19,20-tetranorisocarbacycline methyl ester, reference compound]	88.9	92.1	96.5	97.3	99.0	49.6	78.5	94.4	93.3	99.3	55.0	60.0	81.1	103.8	115.4	–	–	–	Duration of decreased blood pressure ([1]; 3 mg/kg and 0.3 mg/kg dose groups, i.v.): ≥ 30 min
Cc1cccc(C[C@@H](O)/C=C/[C@H]2[C@H](O)CC3C=C(CCCCC(=O)O)C[C@@H]32)c1 (stereo partly drawn) [Test compound A, (15R)-16-(m-tolyl)-17,18,19,20-tetranorisocarbacycline]	–	–	–	–	–	–	–	–	–	–	–	–	–	–	–	–	–	–	Time until moved to dark chamber during retention trial Mean ± standard error ([2]; β-amyloid protein (1-42) 300 pmol/day + test compound 1.2 fmol/day, intraventricular osmotic pump, max observation 300 sec): 265.7 ± 32.6 (n = 6) sec.; Learning and memory ability improvement action ([2]; β-amyloid protein (1-42) infused rats, overall conclusion): improved learning and memory ability
COC(=O)CCCCC1=C[C@H]2C[C@@H](O)[C@H](/C=C/[C@H](O)Cc3cccc(C)c3)[C@H]2C1 [Test compound B, (15R)-16-(m-tolyl)-17,18,19,20-tetranorisocarbacycline methyl ester]	105.8	103.4	103.6	104.5	100.5	92.9	97.7	97.7	98.5	98.0	mild decrease	99.4	101.9	102.7	101.0	none of the animals died	no significant fluctuations	no abnormalities observed in any of the groups	Blood pressure change immediately after dosing ([1]; 3 mg/kg dose group, i.v.): decrease in blood pressure; Heart rate change immediately after dosing ([1]; 3 mg/kg dose group, i.v.): increase in heart rate; Time after dosing at which blood pressure and heart rate returned to normal ([1]; 3 mg/kg dose group, i.v.): 30 min; Blood pressure (mmHg, ± standard error) ([1]; 3 mg/kg i.v., 5 min. after dosing, listed as Test comp. B): 80.4; Fluctuations in blood pressure and heart rate ([1]; 0.3 and 0.03 mg/kg dose groups, i.v.): no significant fluctuations; Effect on the circulatory system (overall conclusion) ([1]; rats, i.v. 0.03-3 mg/kg): extremely mild effect; Time until decreased movement disappeared after dosing ([3]; 3 mg/kg dose group, i.v.): ≤ 30 min; General condition on the day of dosing ([3]; 3 mg/kg dose group, i.v., starting immediately after dosing): decreased movement
COC(=O)CCCCC1=C[C@H]2C[C@@H](O)[C@H](/C=C/CCc3cccc(C)c3)[C@H]2C1 [Test compound C, 15-deoxy-16-(m-tolyl)-17,18,19,20-tetranorisocarbacycline methyl ester]	–	–	–	–	–	–	–	–	–	–	–	–	–	–	–	none of the animals died	no significant fluctuations	no abnormalities observed in any of the groups	General condition on the day of dosing ([3]; all dose groups (0.03, 0.3, 3 mg/kg i.v.)): no abnormalities observed in any of the groups
